Target: T1, human recombinant P-gp membrane fraction (Homo sapiens, UniProt P08183)
T1 construct: purchased Promega
Experiment: P-gp-Glo assay, verapamil-stimulated P-gp ATPase activity
Format: biochemical
Details: for IC50: read-out: IC50, verapamil-stimulated P-glycoprotein ATPase activity; for mechanism of P-gp inhibition: with and without verapamil
Protocol: P-gp Glo™ Assay System represents a bioluminescent assay for the detection of P-gp ATPase activity. […] The activity of P-gp is inversely proportional to the luciferase-generated luminescent signal of unmetabolized ATP. For the detection of P-gp inhibitory potential, the compounds (concentration range 12.5–100 µM) were tested for their capacity to inhibit verapamil-stimulated P-gp ATPase activity in a competitive mode.
Using ATP standard curve and linear regression, the average amount of ATP consumed in presence of each compound was calculated. Afterwards, the specific P-gp activity (consumed ATP) was plotted versus the concentrations of the test compound and IC50 values were determined (Table 6). By using one-way ANOVA analysis, the statistical differences between compounds were identified; the compounds with the most statistically significant inhibition capacity was K3, followed by K4 and K7.
The modulation of P-glycoprotein ATPase activity was performed according to the manufacturer’s guidelines[54] and previously published work[55]. […] The reduction of verapamil-stimulated ATPase activity by selenoesters can indicate them as P-gp ATPase inhibitors. The reaction was initiated with 10 µL of MgATP (5 mM) addition to the final 50 µL volume. After 1 h incubation at 37 °C, the ATPase reaction was stopped with 50 µL of ATP detection reagent and subsequently the plate was incubated for 20 min at room temperature. Thanks to the luciferase reaction, it was possible to detect the remaining non-metabolized ATP as the luminescent signal. By using ATP standards and linear regression, the relative luminescent values (RLU) were converted to ATP concentration per reaction; and the amount of consumed ATP by the compounds was calculated.

T1 sequence (P08183 whole entry): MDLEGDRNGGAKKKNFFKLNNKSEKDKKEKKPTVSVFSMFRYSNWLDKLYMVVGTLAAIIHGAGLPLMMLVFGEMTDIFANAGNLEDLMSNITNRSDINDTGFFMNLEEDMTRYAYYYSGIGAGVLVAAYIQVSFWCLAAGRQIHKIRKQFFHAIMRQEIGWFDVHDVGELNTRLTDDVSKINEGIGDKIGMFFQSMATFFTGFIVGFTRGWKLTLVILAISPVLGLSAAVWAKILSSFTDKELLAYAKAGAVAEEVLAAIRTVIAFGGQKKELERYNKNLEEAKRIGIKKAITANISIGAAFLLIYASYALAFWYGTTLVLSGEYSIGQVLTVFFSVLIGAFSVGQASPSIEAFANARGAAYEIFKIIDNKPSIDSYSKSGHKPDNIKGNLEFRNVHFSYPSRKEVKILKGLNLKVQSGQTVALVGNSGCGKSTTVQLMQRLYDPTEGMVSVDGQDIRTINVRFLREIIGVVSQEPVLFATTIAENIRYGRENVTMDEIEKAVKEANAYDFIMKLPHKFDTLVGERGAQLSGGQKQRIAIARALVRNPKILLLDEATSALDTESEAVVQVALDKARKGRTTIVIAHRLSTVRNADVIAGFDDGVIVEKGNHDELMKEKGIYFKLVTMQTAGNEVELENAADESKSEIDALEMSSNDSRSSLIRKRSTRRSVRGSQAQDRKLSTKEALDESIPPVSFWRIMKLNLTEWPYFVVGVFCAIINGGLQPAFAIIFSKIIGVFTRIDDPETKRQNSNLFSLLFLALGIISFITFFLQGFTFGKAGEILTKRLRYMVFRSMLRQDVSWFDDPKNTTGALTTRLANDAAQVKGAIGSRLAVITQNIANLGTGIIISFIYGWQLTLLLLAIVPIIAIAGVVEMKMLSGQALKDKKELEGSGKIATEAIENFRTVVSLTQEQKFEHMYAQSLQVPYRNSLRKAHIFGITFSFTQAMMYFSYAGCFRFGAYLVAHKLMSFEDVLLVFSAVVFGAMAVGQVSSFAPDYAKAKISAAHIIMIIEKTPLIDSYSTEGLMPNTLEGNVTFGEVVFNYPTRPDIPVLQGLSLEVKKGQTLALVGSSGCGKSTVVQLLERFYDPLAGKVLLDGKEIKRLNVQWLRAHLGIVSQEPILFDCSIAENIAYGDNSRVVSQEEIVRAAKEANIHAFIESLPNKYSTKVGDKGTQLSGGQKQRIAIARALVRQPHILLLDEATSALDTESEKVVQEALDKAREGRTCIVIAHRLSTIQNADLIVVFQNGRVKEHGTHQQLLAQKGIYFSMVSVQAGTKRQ

Molecule CC(=O)C[Se]C(=O)c1ccccc1C(F)(F)F [K4] has an IC50 of 23 ± 0.2 µM.

With CC(=O)C[Se]C(=O)c1ccc(Br)cc1 [K3] the “inhibition of verapamil-stimulated P-gp ATPase activity (luminescent signal)” value (K3 50 µM versus Na3VO4 100 µM) was “more effectively inhibited than sodium orthovanadate”, the IC50 was 11.7 ± 1 µM and the “mechanism of P-gp inhibition” value was “competitively inhibits efflux of another substrate”.

CC(=O)C[Se]C(=O)c1ccc(C(C)(C)C)cc1 [K7] was tested, and the IC50 was 25.7 ± 0.6 µM and the “mechanism of P-gp inhibition” value was “non-competitive P-gp inhibitor”.
